From patent US10334852B2, “Pyrido-1,3-oxazine-2,4-dione compounds with fungicidal activity” (Dow AgroSciences LLC, priority 2016, dated 2019) come the findings set out here.

Where two headings read alike, the source gives them in different places. Where only a bound is given, the exact number is not on record here.

In test [1] the test system is Puccinia triticina. Description: Wheat brown rust (PUCCRT) disease control on wheat seedlings. The format is in vivo, Puccinia triticina on wheat plants (variety Yuma). The following applies: LV activity at 121.5 g/H. The protocol:
Technical grades of materials were dissolved in acetone, which were then mixed with nine volumes of water (H2O) containing 110 ppm Triton X-100. The fungicide solutions were applied onto wheat seedlings using an automated booth sprayer to run-off. All sprayed plants were allowed to air dry prior to further handling. All fungicides were evaluated using the aforementioned method for their activity vs. all target diseases, unless stated otherwise. Wheat leaf blotch and brown rust activity were also evaluated using track spray applications, in which case the fungicides were formulated as EC formulations, containing 0.1% Trycol 5941 in the spray solutions. Wheat plants (variety Yuma) were grown from seed in a greenhouse in 50% mineral soil/50% soil-less Metro mix until the first leaf was fully emerged, with 7-10 seedlings per pot. These plants were inoculated with an aqueous spore suspension of Zymoseptoria tritici either prior to or after fungicide treatments. […] When disease symptoms were fully expressed on the 1st leaves of untreated plants, infection levels were assessed on a scale of 0 to 100 percent disease severity. Percent disease control was calculated using the ratio of disease severity on treated plants relative to untreated plants. […]

Test [2] has as its system Zymoseptoria tritici. Description: Leaf blotch of wheat (SEPTTR) disease control on wheat seedlings. The format is in vivo, Zymoseptoria tritici on wheat plants (variety Yuma). The following applies: LV activity at 121.5 g/H. How it is done: Technical grades of materials were dissolved in acetone, which were then mixed with nine volumes of water (H2O) containing 110 ppm Triton X-100. The fungicide solutions were applied onto wheat seedlings using an automated booth sprayer to run-off. All sprayed plants were allowed to air dry prior to further handling. All fungicides were evaluated using the aforementioned method for their activity vs. all target diseases, unless stated otherwise. Wheat leaf blotch and brown rust activity were also evaluated using track spray applications, in which case the fungicides were formulated as EC formulations, containing 0.1% Trycol 5941 in the spray solutions. Wheat plants (variety Yuma) were grown from seed in a greenhouse in 50% mineral soil/50% soil-less Metro mix until the first leaf was fully emerged, with 7-10 seedlings per pot. These plants were inoculated with an aqueous spore suspension of Zymoseptoria tritici either prior to or after fungicide treatments. […] When disease symptoms were fully expressed on the 1st leaves of untreated plants, infection levels were assessed on a scale of 0 to 100 percent disease severity. Percent disease control was calculated using the ratio of disease severity on treated plants relative to untreated plants.

As to `CCc1cc(OC)ccc1C(c1ccc(OC)cc1OC)[C@H](C)OC(=O)[C@H](C)n1c(=O)oc2c(OC)ccnc2c1=O` (stereo partly shown) [Compound 8], the pest or weed control at 121.5 g/ha in test [1] (24 h, 1 Day Protectant, read-out: PUCCRT 1DP disease control rating) is not above 80%; in test [1] (72 h, 3 Day Curative, read-out: PUCCRT 3DC disease control rating), not above 80%; in test [2] (24 h, 1 Day Protectant, read-out: SEPTTR 1DP disease control rating), more than 80%; in test [2] (72 h, 3 Day Curative, read-out: SEPTTR 3DC disease control rating) it was more than 80%.
